Laboratory results reported in ChEMBL document CHEMBL1201862, “PubChem BioAssay data set” (2004).
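Where inhibition never reached the appropriate level, the endpoint shown equals the highest concentration tested. Otherwise, values were interpolated linearly from a five-concentration, 48-hour dose response in 96-well plates. At the GI50, growth is halved.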 Calls of active or inactive are those of the source. No stated cut-off is given here; in the data, active = GI50 up to about 1.1 µM and inactive = higher.

Columns and labels:
Assay in all cases: growth of human tumour cells (NCI), 48 h
786-0 = tested on: 786-0
ACHN = tested on: ACHN
CAKI-1 = tested on: CAKI-1
HCC 2998 = tested on: HCC 2998
HCT-116 = tested on: HCT-116
HOP-62 = tested on: HOP-62
IGROV-1 = tested on: IGROV-1
K562 = tested on: K562
KM12 = tested on: KM12
M14 = tested on: M14
NCI-H522 = tested on: NCI-H522
NCI/ADR-RES = tested on: NCI/ADR-RES
RPMI-8226 = tested on: RPMI-8226
SF-268 = tested on: SF-268
T47D = tested on: T47D
TK-10 = tested on: TK-10
OVCAR-4 = tested on: OVCAR-4
SNB-75 = tested on: SNB-75
RXF 393 = tested on: RXF 393

SMILES | GI50 (786-0) | GI50 (ACHN) | GI50 (CAKI-1) | GI50 (HCC 2998) | GI50 (HCT-116) | GI50 (HOP-62) | GI50 (IGROV-1) | GI50 (K562) | GI50 (KM12) | GI50 (M14) | GI50 (NCI-H522) | GI50 (NCI/ADR-RES) | GI50 (RPMI-8226) | GI50 (SF-268) | GI50 (T47D) | GI50 (TK-10) | GI50 (OVCAR-4) | GI50 (SNB-75) | GI50 (RXF 393)
CC1C(c2ccc3c(c2)OCO3)c2cc3c(cc2OC1N1CCCCC1)OCO3 (stereo not drawn) | 61.5 µM (inactive) | 59.6 µM (inactive) | 23.4 µM (inactive) | 20 µM (inactive) | 42.6 µM (inactive) | > 100 µM (inactive) | 56.6 µM (inactive) | 35.7 µM (inactive) | 41.9 µM (inactive) | 40.2 µM (inactive) | 31.6 µM (inactive) | 42 µM (inactive) | 47.9 µM (inactive) | > 100 µM (inactive) | 30.7 µM (inactive) | > 100 µM (inactive) |  |  | 
N#CC(C#N)/N=N/c1ccc(-c2nc3ccccc3o2)cc1 | 14.4 µM (inactive) | 12.9 µM (inactive) |  | 1.22 µM (inactive) | 5.55 µM (inactive) | 16.6 µM (inactive) | 19.4 µM (inactive) | 8.61 µM (inactive) | 20.9 µM (inactive) | 15.2 µM (inactive) | 5.02 µM (inactive) | 17.5 µM (inactive) |  | 27.5 µM (inactive) | 4.32 µM (inactive) | 11 µM (inactive) | 12 µM (inactive) | 24.4 µM (inactive) | 
CC(C)(C)c1cc(C2=NNC(c3ccccc3)C2)cc(C(C)(C)C)c1O (stereo not drawn) | 14.3 µM (inactive) | 16.3 µM (inactive) | 12.9 µM (inactive) |  | 14.2 µM (inactive) | 17.1 µM (inactive) | 15.7 µM (inactive) |  | 13.6 µM (inactive) | 17.2 µM (inactive) | 14.7 µM (inactive) | 17 µM (inactive) | 15 µM (inactive) | 17 µM (inactive) | 10.2 µM (inactive) | 15.9 µM (inactive) | 14.2 µM (inactive) | 10.3 µM (inactive) | 10.1 µM (inactive)
CC(C)(C)OC(=O)NNC(=O)C1Cc2ccccc2OC1=O (stereo not drawn) | > 100 µM (inactive) | > 100 µM (inactive) | > 100 µM (inactive) | > 100 µM (inactive) | > 100 µM (inactive) | > 100 µM (inactive) | > 100 µM (inactive) | > 100 µM (inactive) | > 100 µM (inactive) | > 100 µM (inactive) | > 100 µM (inactive) | > 100 µM (inactive) | > 100 µM (inactive) | > 100 µM (inactive) |  | > 100 µM (inactive) |  |  | > 100 µM (inactive)
O=C1Nc2ccccc2S/C1=C\c1ccccc1C(F)(F)F | 44.1 µM (inactive) | 15.1 µM (inactive) | 68.9 µM (inactive) |  | > 100 µM (inactive) | > 100 µM (inactive) | 29 µM (inactive) |  | > 100 µM (inactive) | > 100 µM (inactive) | 30.5 µM (inactive) | > 100 µM (inactive) | 64.1 µM (inactive) | > 100 µM (inactive) | > 100 µM (inactive) | 40.6 µM (inactive) | 18.8 µM (inactive) | 34.4 µM (inactive) | > 100 µM (inactive)
N[C@H]1CCN(c2c(F)cc3c(=O)c(C(=O)O)cn4c3c2Oc2c-4ccc3c2ccc2ccccc23)C1 | 0.128 µM (active) | 0.23 µM (active) | 2.79 µM (inactive) |  | 0.492 µM (active) | 1.07 µM (active) | 0.284 µM (active) | 0.583 µM (active) | 1 µM (active) | 2.15 µM (inactive) | 0.498 µM (active) | 2.8 µM (inactive) | 0.226 µM (active) | 0.288 µM (active) | 2.65 µM (inactive) | 0.408 µM (active) | 0.535 µM (active) |  | 0.255 µM (active)
COc1ccc(N(CN2C(=O)CCC2OC)C(C)=O)cc1 (stereo not drawn) | > 100 µM (inactive) | > 100 µM (inactive) | > 100 µM (inactive) |  | > 100 µM (inactive) | > 100 µM (inactive) | > 100 µM (inactive) | > 100 µM (inactive) | > 100 µM (inactive) | > 100 µM (inactive) | > 100 µM (inactive) | > 100 µM (inactive) | > 100 µM (inactive) | > 100 µM (inactive) | > 100 µM (inactive) | > 100 µM (inactive) | > 100 µM (inactive) | > 100 µM (inactive) | > 100 µM (inactive)
O=C1C2=Nc3ccccc3C(O)(C(=O)O)N2c2ccccc21 (stereo not drawn) | 36.5 µM (inactive) | 26.5 µM (inactive) | 14.3 µM (inactive) | 45.2 µM (inactive) | 20 µM (inactive) | 25.4 µM (inactive) | 37.7 µM (inactive) | 20.8 µM (inactive) | 26.9 µM (inactive) |  | 17.6 µM (inactive) | 29.6 µM (inactive) | 6.68 µM (inactive) | 18.2 µM (inactive) |  | 81.7 µM (inactive) | 14.3 µM (inactive) | 27.2 µM (inactive) | 40 µM (inactive)
CSCCCN(CCCSC)CCCSC | > 100 µM (inactive) |  |  | > 100 µM (inactive) | > 100 µM (inactive) | > 100 µM (inactive) | > 100 µM (inactive) | 97.5 µM (inactive) | > 100 µM (inactive) | > 100 µM (inactive) | 66.7 µM (inactive) | > 100 µM (inactive) |  | > 100 µM (inactive) | > 100 µM (inactive) |  | > 100 µM (inactive) | 48.5 µM (inactive) | 
